What all share (type): functional, cell-based
The test system of one test is NAMALVA. The test can be described thus: Cytotoxicity against human NAMALWA cells assessed as reduction in cell viability after 5 days by WST-8 assay. Conditions: 120 h.
The test system of a further test is KB. The test can be described thus: Cytotoxicity against human KB cells assessed as reduction in cell viability after 5 days by WST-8 assay. To be noted: 120 h. (In general: Tetrazolium assays rely on reduction of a dye to a coloured formazan, in cell work by metabolically active cells.)
Test [1] can be described thus: Cytotoxicity against human NCI-H2110 cells assessed as reduction in cell viability after 5 days by WST-8 assay. To be noted: NCI-H2110, 120 h.

We go through 15 molecules from ChEMBL document CHEMBL4346749, “Design, synthesis and evaluation of novel, potent DNA alkylating agents and their antibody-drug conjugates (ADCs)” (Bioorg Med Chem Lett, 2019).

Structures are written as SMILES.

Broadly, the IC50 is the point on the concentration scale where inhibition reaches its midpoint. For `COC(=O)CCNC(=O)c1cc2cc(NC(=O)c3cc(NC(=O)CCCOc4cc5c(cc4OC)C(=O)N4c6ccccc6C[C@H]4C=N5)cn3C)ccc2o1`, the IC50 in the test on NAMALVA was found to be 0.06 nM; in the test with KB, 0.2 nM; in test [1], 0.5 nM.

On to `COc1cc2c(cc1OCCCC(=O)Nc1cc(C(=O)Nc3ccc4sc(C(=O)NCC(C)(C)SSC)cc4c3)n(C)c1)N=C[C@@H]1Cc3ccccc3N1C2=O`, for which the IC50 was 0.01 nM in the test with NAMALVA, 0.08 nM in the test on KB and 0.3 nM in test [1].

As to `COc1cc2c(cc1OCCCC(=O)Nc1nc(C(=O)Nc3ccc(NC(=O)CCC(C)(C)SSC)cc3)cs1)N=C[C@@H]1Cc3ccccc3N1C2=O`, the 50% inhibitory concentration (IC50) with NAMALVA was 0.03 nM; in the test with KB, 0.1 nM; in test [1], 0.6 nM.

In the case of `COc1cc2c(cc1OCCCC(=O)Nc1cn(C)c(C(=O)Nc3ccc4sc(C(=O)NCC(C)(C)SSC)cc4c3)n1)N=C[C@@H]1Cc3ccccc3N1C2=O`, the 50% inhibitory concentration (IC50) with NAMALVA stood at 0.03 nM.

As for `COc1cc2c(cc1OCCCC(=O)Nc1cc(C(=O)Nc3ccc(-c4cc(C(=O)NCC(C)(C)SSC)n(C)c4)cc3)n(C)c1)N=C[C@@H]1Cc3ccccc3N1C2=O`, the IC50 in the test on NAMALVA worked out at 0.03 nM; with KB it was 0.01 nM; in test [1], 0.1 nM.

Turning to `COc1cc2c(cc1OCCCC(=O)Nc1cn(C)c(C(=O)Nc3ccc(N)cc3)n1)N=C[C@@H]1Cc3ccccc3N1C2=O`, the IC50 in the test on NAMALVA was determined as 0.06 nM; in the test with KB, 0.2 nM; in test [1], 0.4 nM.

On to `COC(=O)CCNC(=O)c1cc2cc(NC(=O)c3cc(NC(=O)CCCOc4cc5c(cc4OC)C(=O)N4c6ccccc6C[C@H]4C=N5)cn3C)ccc2s1`, for which the IC50 with NAMALVA came out at 0.03 nM; in the test on KB it was 0.04 nM; in test [1], 0.2 nM.

In the case of `COc1cc2c(cc1OCCCC(=O)Nc1cn(C)c(C(=O)Nc3ccc(-c4cc(C(=O)NCC(C)(C)SSC)n(C)c4)cc3)n1)N=C[C@@H]1Cc3ccccc3CN1C2=O`, the IC50 in the test on NAMALVA turned out to be 0.001 nM; in the test with KB it was 0.006 nM; in test [1], 0.01 nM.

Take `COc1cc2c(cc1OCCCC(=O)Nc1cc(C(=O)Nc3ccc4sc(C(=O)NCC(C)(C)SSC)cc4c3)n(C)c1)N=C[C@@H]1Cc3ccccc3CN1C2=O`: the results for the half-inhibitory concentration (IC50) (with NAMALVA; with KB; in test [1]) were 0.002 nM, 0.005 nM and 0.03 nM, respectively.

`COc1cc2c(cc1OCCCC(=O)Nc1cn(C)c(C(=O)Nc3ccc(-c4cc(C(=O)NCC(C)(C)SSC)n(C)c4)cc3)n1)N=C[C@@H]1Cc3ccccc3N1C2=O`: the IC50 turned out to be 0.01 nM with NAMALVA, 0.04 nM in the test on KB and 0.06 nM in test [1].

Consider `COc1cc2c(cc1OCCCC(=O)Nc1cn(C)c(C(=O)Nc3ccc4sccc4c3)n1)N=C[C@@H]1Cc3ccccc3N1C2=O`, for which the half-maximal inhibitory concentration (IC50) in the test with NAMALVA stood at 0.02 nM; in the test with KB it was 0.04 nM; in test [1], 0.08 nM.

Take `COC(=O)CCNC(=O)c1cc2cc(NC(=O)c3nc(NC(=O)CCCOc4cc5c(cc4OC)C(=O)N4c6ccccc6C[C@H]4C=N5)cn3C)ccc2o1`: the IC50 in the test on NAMALVA amounted to 0.06 nM; with KB, 0.08 nM; in test [1], 0.5 nM.

As to `COc1cc2c(cc1OCCCC(=O)Nc1cn(C)c(C(=O)Nc3ccc(NC(=O)CCC(C)(C)SSC)cc3)n1)N=C[C@@H]1Cc3ccccc3N1C2=O`, the IC50 with NAMALVA is 0.03 nM; in the test with KB, 0.03 nM; in test [1], 0.4 nM.

Turning to `COC(=O)c1cc2cc(NC(=O)c3cc(NC(=O)CCCOc4cc5c(cc4OC)C(=O)N4c6ccccc6C[C@H]4C=N5)cn3C)ccc2s1`, the IC50 in the test with NAMALVA came out at 0.02 nM; in the test with KB, 0.01 nM; in test [1], 0.05 nM.

Regarding `COC(=O)CCNC(=O)c1cc2cc(NC(=O)c3nc(NC(=O)CCCOc4cc5c(cc4OC)C(=O)N4c6ccccc6C[C@H]4C=N5)cn3C)ccc2s1`, the IC50 with NAMALVA came to 0.01 nM.
